Laboratory results from the supplement of paper PMC9386025.

What was measured:
Experiment in all cases: drug sensitivity score (DSS) (DSS (dimensionless)); higher = more sensitive (stronger drug response)
FIMM-PDC6 = patient-derived ovarian cancer cells; conditions: genetic perturbation: none (patient-derived cell culture)
How it was run: (§1)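 Ovarian cancer cell lines, after at least three days of shRNA induction with 100 ng/ml doxycycline, and patient-derived cultures were plated at 1 000 – 1 500 cells per well into 384-well plates pre-loaded with drugs at five concentrations spanning a 10,000-fold range. Plates were then kept for three days at 37 °C and 5.0 % CO2. Viability was measured as CellTiter-Glo luminescence on a PHERAstar FS, and each drug's dose-response curve was reduced to a drug sensitivity score computed by a previously described method.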

OVSAHO = test system: OVSAHO
How it was run: as §1

JHOS2 = test system: JHOS2
How it was run: as §1

FIMM-PDC3 = patient-derived ovarian cancer cells; conditions: genetic perturbation: none (patient-derived cell culture)
How it was run: as §1

FIMM-PDC4 = patient-derived ovarian cancer cells; conditions: genetic perturbation: none (patient-derived cell culture)
How it was run: as §1

Kuramochi = test system: Kuramochi
How it was run: as §1

FIMM-PDC5 = patient-derived ovarian cancer cells; conditions: genetic perturbation: none (patient-derived cell culture)
How it was run: as §1

FIMM-PDC7 = patient-derived ovarian cancer cells; conditions: genetic perturbation: none (patient-derived cell culture)
How it was run: as §1

FIMM-PDC1 = patient-derived ovarian cancer cells; conditions: genetic perturbation: none (patient-derived cell culture)
How it was run: as §1

[1] = genetic perturbation: DOX-induced PTK7 shRNA knockdown
[2] = genetic perturbation: DOX-induced control shRNA

Compound | drug sensitivity score (FIMM-PDC6) | drug sensitivity score (OVSAHO; [1]) | drug sensitivity score (OVSAHO; [2]) | drug sensitivity score (JHOS2; [1]) | drug sensitivity score (JHOS2; [2]) | drug sensitivity score (FIMM-PDC3) | drug sensitivity score (FIMM-PDC4) | drug sensitivity score (Kuramochi; [1]) | drug sensitivity score (Kuramochi; [2]) | drug sensitivity score (FIMM-PDC5) | drug sensitivity score (FIMM-PDC7) | drug sensitivity score (FIMM-PDC1)
COc1cc(OC)c(/C=C/S(=O)(=O)Cc2ccc(OC)c(NCC(=O)O)c2)c(OC)c1 [Rigosertib] | 15.1 | 19.1 | 9.2 | 18.3 | 13 | 19 | 23.6 | 17.9 | 6.4 | 20 | 10.6 | 13.2
C=CC(=O)Nc1cccc(Nc2nc(Nc3ccc(N4CCN(C(C)=O)CC4)cc3OC)ncc2C(F)(F)F)c1 [Rociletinib] | 10.3 | 9.1 | 5.1 | 3.6 | 2.1 | 7.6 | 10 | 4.75 | 4.6 | 10.3 | 10.7 | 5.2
C/C=C1\NC(=O)[C@H]2CSSCC/C=C/[C@H](CC(=O)N[C@H](C(C)C)C(=O)N2)OC(=O)[C@H](C(C)C)NC1=O [Romidepsin] | 31.1 | 28.1 | 25.4 | 24.3 | 24.1 | 29.6 | 25.6 | 30.7 | 21.6 | 26.9 | 27.2 | 26.2
CN(C)C[C@@H]1CCn2cc(c3ccccc32)C2=C(C(=O)NC2=O)c2cn(c3ccccc23)CCO1 [Ruboxistaurin] | 6.8 | 9.8 | 6 | 6.2 | 6.5 | 8.5 | 7.8 | 7.25 | 7 | 11.1 | 8.1 | 6.85
CN1CCC(CNc2ccc3ncc(-c4cccc(OC(F)(F)F)c4)n3n2)CC1 [SGI-1776] | 6.8 | 7.9 | 7.2 | 6.2 | 5.9 | 6 | 6.8 | 5.3 | 5.7 | 6.9 | 9.1 | 5.6
CN(CC(=O)N(Cc1ccc(C2CCCCC2)cc1)c1ccc(C(=O)O)cc1)S(=O)(=O)c1c(F)c(F)c(F)c(F)c1F [SH-4-54] | 7.6 | 5.2 | 5.4 | 4.6 | 3.7 | 6 | 7 | 6.1 | 4.7 | 5.1 | 9.2 | 4
CCc1c2c(nc3ccc(O)cc13)-c1cc3c(c(=O)n1C2)COC(=O)[C@]3(O)CC [SN-38] | 28.9 | 21 | 16.4 | 26.1 | 22.5 | 26.6 | 19.2 | 21 | 8.6 | 29.7 | 21.3 | 23.5
CC(C)(C)c1cnc(CSc2cnc(NC(=O)C3CCNCC3)s2)o1 [SNS-032] | 19.2 | 17.5 | 15.9 | 19.9 | 16.9 | 16.9 | 20 | 16.9 | 17.2 | 24.7 | 19.1 | 18.6
Cc1cc2c(C(=O)NC[C@H](C)c3ccccc3)c(O)c(O)cc2c(O)c1-c1c(C)cc2c(C(=O)NC[C@H](C)c3ccccc3)c(O)c(O)cc2c1O [Sabutoclax] | 6.4 | 4.7 | 6.5 | 11.1 | 10.8 | 11.8 | 6.9 | 7.8 | 6.8 | 5.2 | 3.8 | 4.75
CC[C@@H](C(=O)[C@@H](C)[C@@H](O)[C@H](C)[C@@H]1O[C@@H]([C@@H](CC)C(=O)O)CC[C@@H]1C)[C@H]1O[C@]2(C=C[C@@H](O)[C@]3(CC[C@@](C)([C@H]4CC[C@](O)(CC)[C@H](C)O4)O3)O2)[C@H](C)C[C@@H]1C [Salinomycin] | 8.1 | 29.2 | 4.8 | 24.2 | 15.5 | 18.8 | 16.8 | 19.4 | 21.6 | 18.4 | 14.7 | 11.6
CC(C)n1nc(-c2ccc3oc(N)nc3c2)c2c(N)ncnc21 [Sapanisertib] | 16.3 | 14 | 11.6 | 6.9 | 9.3 | 7.6 | 15.4 | 10.1 | 10.7 | 21.2 | 16.3 | 7.5
CNC(=O)CN1CCC(Oc2cc3c(Nc4cccc(Cl)c4F)ncnc3cc2OC)CC1 [Sapitinib] | 11.4 | < 0 | < 0 | < 0 | < 0 | 8.8 | 16.3 | 0.5 | < 0 | 16.5 | 10.1 | 0.6
CN1CCN(CCOc2cc(OC3CCOCC3)c3c(Nc4c(Cl)ccc5c4OCO5)ncnc3c2)CC1 [Saracatinib] | 9.4 | 12.4 | 6.6 | 1.4 | 7.3 | 12 | 13.7 | 10.6 | 5.2 | 15.2 | 5.8 | 4.6
O=C(/C=C\n1cnc(-c2cc(C(F)(F)F)cc(C(F)(F)F)c2)n1)NNc1cnccn1 [Selinexor] | 24.4 | 14.8 | 7.4 | 18.8 | 14.5 | 22.4 | 17.1 | 9.85 | 13.5 | 20.1 | 19.5 | 12.4
Cn1cnc2c(F)c(Nc3ccc(Br)cc3Cl)c(C(=O)NOCCO)cc21 [Selumetinib] | 7.6 | 13.5 | 1.7 | 0.7 | 8.6 | 4.9 | 10 | 7.5 | 2 | 11.4 | 10.3 | < 0
Nc1nc2cc(-c3ccc4ncc(C(=O)N5CCOCC5)n4c3)ccc2o1 [Serabelisib] | 3.1 | 0.8 | < 0 | 0.9 | 0.2 | 0.6 | 4.1 | < 0 | < 0 | 5.2 | 9.1 | 0.6

Compound | drug sensitivity score (FIMM-PDC6) | drug sensitivity score (OVSAHO; [1]) | drug sensitivity score (OVSAHO; [2]) | drug sensitivity score (JHOS2; [1]) | drug sensitivity score (JHOS2; [2]) | drug sensitivity score (FIMM-PDC3) | drug sensitivity score (FIMM-PDC4) | drug sensitivity score (Kuramochi; [1]) | drug sensitivity score (Kuramochi; [2]) | drug sensitivity score (FIMM-PDC5) | drug sensitivity score (FIMM-PDC7) | drug sensitivity score (FIMM-PDC1)
O=C(O)c1ccc2c(c1)nc(Nc1cccc(Cl)c1)c1ccncc12 [Silmitasertib] | < 0 | 5.5 | 5.8 | 3.3 | 3.6 | 4.8 | 1.5 | 5.55 | 4.5 | 6.6 | 2.8 | 3.2
CCS(=O)(=O)c1cccc(-c2cc(C(=O)NC3CCN(C)CC3)c(C)c3[nH]c4ncc(C)cc4c23)c1 [TAK-901] | 7.3 | 8.3 | 5.7 | 3.2 | 5.3 | 4.3 | 7.9 | 7.3 | 6.4 | 6.5 | 3 | 4.85
COc1cc(Nc2ncc(F)c(Nc3ccc4c(n3)NC(=O)C(C)(C)O4)n2)cc(OC)c1OC [Tamatinib] | 1.6 | 7 | 1.1 | 4.2 | 0.1 | 3.8 | 6.4 | 2.9 | 1.1 | 12.9 | 8.6 | < 0
Cc1nc(-c2cn3c(n2)-c2ccc(-c4cnn(C(C)(C)C(N)=O)c4)cc2OCC3)n(C(C)C)n1 [Taselisib] | 6.3 | 3.1 | 4.7 | 4.3 | 2.4 | 6.7 | 9.5 | 4.5 | 1.1 | 11.6 | 12.3 | 4.2
CO[C@H]1C[C@@H]2CC[C@@H](C)[C@@](O)(O2)C(=O)C(=O)N2CCCC[C@H]2C(=O)O[C@H]([C@H](C)C[C@@H]2CC[C@@H](OC(=O)C(C)(CO)CO)[C@H](OC)C2)CC(=O)[C@H](C)/C=C(\C)[C@@H](O)[C@@H](OC)C(=O)[C@H](C)C[C@H](C)/C=C/C=C/C=C/1C [Temsirolimus] | 5.7 | 2.3 | 6.6 | < 0 | 7.2 | 2.8 | 8.7 | 4.5 | 2.7 | 12.2 | 4 | 2.25
COc1cc2c(Nc3ccc(Cl)c(Cl)c3F)ncnc2cc1OC[C@@H]1C[C@@H]2CN(C)C[C@@H]2C1 [Tesevatinib] | 16.4 | 0.5 | 1.9 | < 0 | 3.1 | 13.6 | 19.2 | 1.35 | 1 | 23.9 | 11.5 | 2.25
Nc1nc2[nH]cnc2c(=S)[nH]1 [Thioguanine] | 2.9 | 4.9 | 8.1 | 1.9 | 1 | < 0 | 6.6 | 9.75 | 7 | 6.4 | 4.7 | 5.75
CC[C@@]1(O)C(=O)OCc2c1cc1n(c2=O)Cc2cc3c(CN(C)C)c(O)ccc3nc2-1 [Topotecan] | 12.8 | 8.7 | 7.5 | 10.5 | 11.5 | 12.4 | 7.8 | 6.85 | 6.4 | 14.4 | 12.2 | 10.3
CC(C)C[C@@H](C(=O)N[C@H](C(=O)OC1CCCC1)c1ccccc1)[C@H](O)C(=O)NO [Tosedostat] | 11.1 | 3.1 | 6.4 | 29.8 | 14.2 | 14.9 | 9.5 | 0.75 | 0.7 | 12.1 | 6.4 | 12.6
Cc1cc(Nc2cc(N3CCN(C)CC3)nc(Sc3ccc(NC(=O)C4CC4)cc3)n2)n[nH]1 [Tozasertib] | 1.6 | 3.9 | 1.9 | 4.1 | 4.3 | 4.2 | 5.7 | 4.2 | 2.4 | 6.2 | 3.7 | 2.9
CC(=O)Nc1cccc(-n2c(=O)n(C3CC3)c(=O)c3c(Nc4ccc(I)cc4F)n(C)c(=O)c(C)c32)c1 [Trametinib] | 10.3 | 10.6 | 7.3 | 1.6 | 12.5 | 4.8 | 13 | 8.9 | 4.5 | 17.2 | 9 | 0.75
Nc1cc(F)ccc1NC(=O)c1ccc(CNC(=O)/C=C/c2cccnc2)cc1 [Tucidinostat] | 6.3 | 6.5 | 2.1 | 2 | 2.1 | 7.7 | 3.5 | 6.65 | 1.5 | 7.3 | 7.4 | 5.9
CN[C@@H]1C[C@H]2O[C@@](C)([C@@H]1OC)n1c3ccccc3c3c4c(c5c6ccccc6n2c5c31)C(=O)N[C@H]4O [UCN-01] | 24 | 24.7 | 15.2 | 21.2 | 21.5 | 22.2 | 26.4 | 12.3 | 16.2 | 29.6 | 28.4 | 26.5
CC(C)Nc1cc(-c2c[nH]c(C(=O)N[C@H](CO)c3cccc(Cl)c3)c2)c(Cl)cn1 [Ulixertinib] | 12.3 | 7.3 | 5 | 2.8 | 6.8 | 6.4 | 13.1 | 10.2 | 3.3 | 14.3 | 12 | 0.15
Cn1ncc(Cl)c1-c1cc(C(=O)N[C@H](CN)Cc2ccc(F)c(F)c2)oc1Cl [Uprosertib] | 6.8 | < 0 | 2.5 | 0.6 | 0.2 | < 0 | 5 | 1.55 | < 0 | 8.9 | 6.5 | 1.9
C=CC(=O)N1CC/C(=C\c2ccc(F)c([N+](=O)[O-])c2)C(=O)/C(=C/c2ccc(F)c([N+](=O)[O-])c2)C1 [VLX1570] | 19.6 | 23.2 | 19.4 | 25.9 | 15.3 | 18.5 | 16.9 | 23.4 | 16.4 | 22.3 | 20.5 | 12.1
